Key:
[1] = target: T1, human recombinant ALDH1a1 (Homo sapiens, UniProt P00352); experiment: ALDH enzyme inhibition assay (ALDH1a1), diaphorase/resorufin fluorescence; assay type: biochemical; conditions: for IC50: read-out: IC50 (µM) ± SE (ALDH1a1); for fold reduction of ALDH1a1 inhibitory activity: relative to compound (2)
T1 sequence (P00352 1-501): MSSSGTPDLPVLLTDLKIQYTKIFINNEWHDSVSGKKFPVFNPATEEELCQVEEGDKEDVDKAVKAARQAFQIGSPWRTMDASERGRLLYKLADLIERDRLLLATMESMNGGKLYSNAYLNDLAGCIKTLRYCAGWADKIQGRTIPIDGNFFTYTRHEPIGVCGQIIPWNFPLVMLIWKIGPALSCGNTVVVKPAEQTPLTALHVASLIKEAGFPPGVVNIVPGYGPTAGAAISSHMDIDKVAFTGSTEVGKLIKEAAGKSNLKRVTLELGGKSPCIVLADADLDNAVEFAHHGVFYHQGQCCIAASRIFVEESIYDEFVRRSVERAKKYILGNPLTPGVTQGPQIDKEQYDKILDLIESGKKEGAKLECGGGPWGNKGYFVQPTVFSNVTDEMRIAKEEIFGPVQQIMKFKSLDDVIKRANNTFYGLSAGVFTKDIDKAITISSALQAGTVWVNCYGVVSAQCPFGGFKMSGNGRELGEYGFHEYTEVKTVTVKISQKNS
Method: (§1) The inhibitory activity of the thiuram disulfide (4) was evaluated in vitro against human recombinant ALDH1a1 and ALDH2, as shown in Figure 3 and Table 1.
(§2) All tested compounds were prepared as 100 mM stock solutions in DMSO. […] Five µL of desalted enzyme […] Five µL of reaction buffer were also added to the “no enzyme” background control wells. The test compounds were added to the assay wells. The reaction plate was then centrifuged briefly at 1200 rpm, then incubated for 20 min at RT. […] The reaction plate was briefly centrifuged and incubated at RT for 60 min. Ten µL of detection reagent composed of 15 µg/mL diaphorase and […] were added. The reaction plate was briefly centrifuged and incubated for a further 10 min at RT in the dark.

human recombinant ALDH2 [2] = target: T2, human recombinant ALDH2 (Homo sapiens, UniProt P05091); experiment: ALDH enzyme inhibition assay (ALDH2), diaphorase/resorufin fluorescence; assay type: biochemical; conditions: average of at least two experiments ± standard error; 100 µM acetaldehyde, 500 µM NAD+; 20 min preincubation; NI = no inhibition up to 0.5 mM; read-out: IC50 (µM) ± SE (ALDH2)
T2 sequence (P05091 18-517): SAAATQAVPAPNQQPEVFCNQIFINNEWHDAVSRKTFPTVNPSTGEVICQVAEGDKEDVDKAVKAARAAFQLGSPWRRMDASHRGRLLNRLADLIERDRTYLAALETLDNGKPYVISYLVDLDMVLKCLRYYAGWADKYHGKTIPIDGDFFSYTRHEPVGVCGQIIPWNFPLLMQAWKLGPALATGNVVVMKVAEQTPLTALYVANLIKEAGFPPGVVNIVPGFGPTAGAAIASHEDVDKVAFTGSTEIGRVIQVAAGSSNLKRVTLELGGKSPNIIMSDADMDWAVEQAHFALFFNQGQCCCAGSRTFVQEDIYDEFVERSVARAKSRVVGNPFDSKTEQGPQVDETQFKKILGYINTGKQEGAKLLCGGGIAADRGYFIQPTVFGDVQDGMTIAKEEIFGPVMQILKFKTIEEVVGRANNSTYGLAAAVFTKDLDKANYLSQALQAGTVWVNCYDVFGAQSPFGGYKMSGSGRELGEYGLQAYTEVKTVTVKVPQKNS
Method: as §1, §2

human recombinant ALDH2 [3] = target: T2, human recombinant ALDH2; conditions: previously reported; cited from earlier work
[4] = average of at least two experiments ± standard error, 250 µM acetaldehyde, 500 µM NAD+, 20 min preincubation, NI = no inhibition up to 0.5 mM

Row | Structure (SMILES) | IC50 [1, 4] | IC50 (human recombinant ALDH2 [2]) | IC50 against ALDH2 (human recombinant ALDH2 [3]) | fold reduction of ALDH1a1 inhibitory activity [1] | IC50 (µM) ± SE (ALDH1a1) [1, 4]
1 | CCN(Cc1ccc(F)cc1)C(=S)SSC(=S)N(CC)Cc1ccc(F)cc1 [Compound 2] | 0.17 ± 0.06 µM | > 500 µM | no inhibition |  | 
2 | CCN(Cc1cccc(F)c1)C(=S)SSC(=S)N(CC)Cc1cccc(F)c1 [Compound 4a, bis(N-3-Fluorobenzylethylthiocarbamoyl)disulphide] | 0.31 ± 0.14 µM | > 500 µM |  | 2 fold | 
3 | CCN(Cc1ccccc1F)C(=S)SSC(=S)N(CC)Cc1ccccc1F [Compound 4b, bis(N-2-Fluorobenzylethylthiocarbamoyl)disulphide] | 0.59 ± 0.46 µM | > 500 µM |  | 3.5 fold | 
4 | CCN(Cc1ccc(Cl)cc1)C(=S)SSC(=S)N(CC)Cc1ccc(Cl)cc1 [Compound 4c, bis(N-4-Chlorobenzylethylthiocarbamoyl)disulphide] | 0.86 ± 0.68 µM | > 500 µM |  | five | 
5 | CCN(Cc1ccc(C(F)(F)F)cc1)C(=S)SSC(=S)N(CC)Cc1ccc(C(F)(F)F)cc1 [Compound 4d, bis(N-4-trifluoromethylbenzylethylthiocarbamoyl)disulphide] | > 500 µM | > 500 µM |  |  | completely inactive
6 | CCN(Cc1ccc(OC)cc1)C(=S)SSC(=S)N(CC)Cc1ccc(OC)cc1 [Compound 4e] | 0.58 ± 0.41 µM | > 500 µM |  |  | 
7 | CCN(Cc1ccncc1)C(=S)SSC(=S)N(CC)Cc1ccncc1 [Compound 4f, bis(N-(4-pyridylmethyl)ethylthiocarbamoyl)disulphide] | 5.76 ± 4.01 µM | > 500 µM |  | more than 33 fold | 
8 | CCN(Cc1ccco1)C(=S)SSC(=S)N(CC)Cc1ccco1 [Compound 4g, bis(N-(2-furylmethyl)ethylthiocarbamoyl)disulphide] | 0.39 ± 0.27 µM | 200 µM |  |  | 
9 | CCN(Cc1cccs1)C(=S)SSC(=S)N(CC)Cc1cccs1 [Compound 4h, bis(N-(2-thienylmethyl)ethylthiocarbamoyl)disulphide] | 0.39 ± 0.31 µM | > 500 µM |  |  | 
10 | CCN(Cc1ccsc1)C(=S)SSC(=S)N(CC)Cc1ccsc1 [Compound 4i, bis(N-(3-thienylmethyl)ethylthiocarbamoyl)disulphide] | 0.17 ± 0.1 µM | > 500 µM |  |  | 
